# Counter-ions that a name gives are not always drawn.
# Legend:
# [1] = test system: peripheral blood lymphocytes; assay: In vivo: blood lymphocyte depletion; conditions: rats, p.o.
# Method: B. In Vivo: Blood Lymphocyte Depletion
# A compound of formula I or the vehicle is administered orally by gavage to rats. Tall blood for hematological monitoring is obtained on day −1 to give the baseline individual values, and at 2, 6, 24, 48 and 72 hours after application. In this assay, the compounds of formula I deplete peripheral blood lymphocytes when administered at a dose of 0.03 to 3 mg/kg.
# [2] = molecular target: T1, human S1P receptors (S1P2) (Homo sapiens, UniProt O95136); assay: S1P receptor profiling, GTP[γ-35S] binding SPA, S1P2; assay type: biochemical; conditions: membranes of transfected CHO or RH7777 cells
# T1 construct: expressed in transfected cells
# T1 sequence (O95136 whole entry): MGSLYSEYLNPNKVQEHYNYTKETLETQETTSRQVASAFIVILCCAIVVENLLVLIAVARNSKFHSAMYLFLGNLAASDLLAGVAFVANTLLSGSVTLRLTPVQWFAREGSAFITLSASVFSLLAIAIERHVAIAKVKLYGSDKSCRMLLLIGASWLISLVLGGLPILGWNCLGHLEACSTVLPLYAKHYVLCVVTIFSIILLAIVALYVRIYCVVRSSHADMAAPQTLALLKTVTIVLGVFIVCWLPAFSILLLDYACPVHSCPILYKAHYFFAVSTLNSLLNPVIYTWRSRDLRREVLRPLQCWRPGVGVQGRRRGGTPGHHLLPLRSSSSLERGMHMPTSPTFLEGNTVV
# Method: (§1) The compounds of formula I have binding affinity to individual human S1P receptors as determined in following assays:
# (§2) Sphingosine-1-Phosphate (S1P) Receptor Profiling
# (§3) Agonist activities of compounds are tested on the human S1P receptors (S1P1), (S1P3), (S1P2), (S1P4) and (S1P5). […] The assay technology used is SPA (scintillation proximity based assay). Briefly, DMSO dissolved compounds are serially diluted and added to SPA-bead (Amersham-Pharmacia) immobilised S1P receptor expressing membrane protein (10-20 μg/well) in the presence of 50 mM Hepes, 100 mM NaCl, 10 mM MgCl2, 10 μM GDP, 0.1% fat free BSA and 0.2 nM GTP [γ-^35S] (1200 Ci/mmol). After incubation in 96 well microtiterplates at RT for 120 min, unbound GTP [γ-^35S] is separated by a centrifugation step. Luminescence of SPA beads triggered by membrane bound GTP [γ-^35S] is quantified with a TOPcount plate reader (Packard). EC50s are calculated using standard curve fitting software.
# [3] = molecular target: T2, human S1P receptors (S1P5) (Homo sapiens, UniProt Q9H228); assay: S1P receptor profiling, GTP[γ-35S] binding SPA, S1P5; assay type: biochemical; design: key to S1P5 mode of action (Agon = agonist): Agon = agonist; conditions: for EC50: GTP[γ-35S] binding, membranes of transfected CHO or RH7777 cells; for S1P5 mode of action (Agon = agonist): column beside S1P5 EC50
# T2 construct: expressed in transfected cells
# T2 sequence (Q9H228 whole entry): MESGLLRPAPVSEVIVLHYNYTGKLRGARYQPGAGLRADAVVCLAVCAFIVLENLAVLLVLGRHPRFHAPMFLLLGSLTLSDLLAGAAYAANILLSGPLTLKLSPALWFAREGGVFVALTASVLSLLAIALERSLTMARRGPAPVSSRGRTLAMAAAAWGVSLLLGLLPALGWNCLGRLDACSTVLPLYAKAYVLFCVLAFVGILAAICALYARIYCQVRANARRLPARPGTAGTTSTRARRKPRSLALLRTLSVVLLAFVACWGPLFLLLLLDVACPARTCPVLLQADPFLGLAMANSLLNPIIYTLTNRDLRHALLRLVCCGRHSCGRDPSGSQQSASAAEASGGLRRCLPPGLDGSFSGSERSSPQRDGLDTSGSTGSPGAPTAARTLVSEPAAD
# Method: as §1, §2, §3
# [4] = molecular target: T3, human S1P receptors (S1P4) (Homo sapiens, UniProt O95977); assay: S1P receptor profiling, GTP[γ-35S] binding SPA, S1P4; assay type: biochemical; design: key to S1P4 mode of action (Agon = agonist): Agon = agonist; conditions: for EC50: GTP[γ-35S] binding, membranes of transfected CHO or RH7777 cells; for S1P4 mode of action (Agon = agonist): column beside S1P4 EC50
# T3 construct: expressed in transfected cells
# T3 sequence (O95977 1-384): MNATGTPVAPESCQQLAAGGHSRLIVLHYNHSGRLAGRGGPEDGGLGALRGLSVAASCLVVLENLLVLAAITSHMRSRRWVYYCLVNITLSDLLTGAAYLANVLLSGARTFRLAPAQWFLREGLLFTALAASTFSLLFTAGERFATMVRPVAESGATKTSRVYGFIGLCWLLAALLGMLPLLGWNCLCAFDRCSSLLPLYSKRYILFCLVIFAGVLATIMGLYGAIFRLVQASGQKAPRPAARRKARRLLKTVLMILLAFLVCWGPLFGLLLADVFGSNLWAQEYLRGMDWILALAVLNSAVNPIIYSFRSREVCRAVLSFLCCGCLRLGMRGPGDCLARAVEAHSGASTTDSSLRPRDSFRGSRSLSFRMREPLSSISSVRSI
# Method: as §1, §2, §3
# [5] = molecular target: T4, human S1P receptors (S1P3) (Homo sapiens, UniProt Q99500); assay: S1P receptor profiling, GTP[γ-35S] binding SPA, S1P3; assay type: biochemical; design: key to S1P3 mode of action (Agon = agonist): Agon = agonist; conditions: for EC50: GTP[γ-35S] binding, membranes of transfected CHO or RH7777 cells
# T4 construct: expressed in transfected cells
# T4 sequence (Q99500 whole entry): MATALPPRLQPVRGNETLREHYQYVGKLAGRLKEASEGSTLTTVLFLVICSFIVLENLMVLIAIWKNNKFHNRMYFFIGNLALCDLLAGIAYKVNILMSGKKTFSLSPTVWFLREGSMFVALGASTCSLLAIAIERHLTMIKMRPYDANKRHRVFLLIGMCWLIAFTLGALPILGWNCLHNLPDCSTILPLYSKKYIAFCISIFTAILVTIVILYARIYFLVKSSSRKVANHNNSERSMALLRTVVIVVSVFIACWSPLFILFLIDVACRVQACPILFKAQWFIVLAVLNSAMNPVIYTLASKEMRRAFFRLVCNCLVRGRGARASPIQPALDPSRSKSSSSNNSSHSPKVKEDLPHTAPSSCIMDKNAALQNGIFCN
# Method: as §1, §2, §3
# [6] = molecular target: T5, human S1P receptors (S1P1) (Homo sapiens, UniProt P21453); assay: S1P receptor profiling, GTP[γ-35S] binding SPA, S1P1; assay type: biochemical; design: key to S1P1 mode of action (Agon = agonist): Agon = agonist; conditions: for EC50: GTP[γ-35S] binding, membranes of transfected CHO or RH7777 cells
# T5 construct: expressed in transfected cells
# T5 sequence (P21453 whole entry): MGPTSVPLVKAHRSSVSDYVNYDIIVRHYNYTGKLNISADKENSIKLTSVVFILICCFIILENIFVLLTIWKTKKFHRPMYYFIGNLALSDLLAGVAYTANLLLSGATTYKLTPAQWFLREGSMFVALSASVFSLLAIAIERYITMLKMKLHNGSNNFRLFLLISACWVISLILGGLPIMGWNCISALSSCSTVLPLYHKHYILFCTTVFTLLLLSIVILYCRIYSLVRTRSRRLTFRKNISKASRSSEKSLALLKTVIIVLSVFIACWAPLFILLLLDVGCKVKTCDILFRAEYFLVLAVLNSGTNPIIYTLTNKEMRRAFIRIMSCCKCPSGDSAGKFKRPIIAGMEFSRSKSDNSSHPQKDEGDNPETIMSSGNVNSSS
# Method: as §1, §2, §3
melting point [°C],EC50 [2] [nM],EC50 [3] [nM],S1P5 mode of action (Agon = agonist) [3],EC50 [4] [nM],S1P4 mode of action (Agon = agonist) [4],EC50 [5] [nM],S1P1 mode of action (Agon = agonist) [6],EC50 [6] [nM],S1P3 mode of action (Agon = agonist) ([5]; column beside S1P3 EC50),Structure (SMILES),dose giving depletion of peripheral blood lymphocytes by more than 50% ([1]; after 6 h) [mg/kg],dose giving depletion of peripheral blood lymphocytes by more than 50% ([1]; after 24 h) [mg/kg]
186 to 189,,,,,,,,,,"C[C@](N)(CO)CCc1ccc(OCCCC(F)(F)C(F)(F)F)cc1 (as salt: hydrochloride) [Example 1, (R)-2-Amino-2-methyl-4-[4-(4,4,5,5,5-pentafluoro-pentyloxy)-phenyl]-butan-1-ol Hydrochloride]",,
143 to 146,,,,,,,,,,"C[C@](N)(CO)CCc1ccc(OCCCCCF)cc1 (as salt: hydrochloride) [Example 2, (R)-2-Amino-2-methyl-4-[4-(5-fluoro-pentyloxy)-phenyl]-butan-1-ol Hydrochloride]",,
,,,,,,,,,,"C[C@](N)(CO)CCc1ccc(OCCCC(F)(F)C(F)(F)F)cc1 [Example 1, (R)-2-Amino-2-methyl-4-[4-(4,4,5,5,5-pentafluoro-pentyloxy)-phenyl]-butan-1-ol Hydrochloride]",0.2,0.1
229 to 231,> 10000,0.9,Agon,15.3,Agon,> 10000,Agon,16.1,,"C[C@@](N)(CCc1ccc(OCCCC(F)(F)C(F)(F)F)cc1)COP(=O)(O)O [Example 34, Mono-(R)-2-Amino-2-methyl-4-[4-(4,4,5,5,5-pentafluoro-pentyloxy)-phenyl]-but-2-yl phosphate]",,
237 to 241,,,,,,,,,,"C[C@@](N)(CCc1ccc(OCCCCCF)cc1)COP(=O)(O)O [Example 35, Mono-(R)-2-Amino-2-methyl-4-[4-(5-fluoro-pentyloxy)-phenyl]-but-2-yl phosphate]",,
,> 10000,21.7,Agon,1.8,Agon,> 10000,Agon,4.1,,CC(N)(CCc1ccc(OCCc2ccc3ccccc3c2)cc1)COP(=O)(O)O (stereo not drawn) [Example 42],,
,> 10000,1.5,Agon,> 10000,,196,Agon,0.3,Agon,C[C@@](N)(CCc1ccc(C(=O)CCc2ccc(-c3ccccc3)cc2)cc1)COP(=O)(O)O [Example 50],,
,> 10000,4.9,Agon,,,> 10000,Agon,12.2,,COc1ccc(CCOc2ccc(CCC(N)(CO)COP(=O)(O)O)cc2)cc1F (stereo not drawn) [Example 94],,

# From US7612238B2, “Amino-propanol derivatives” (Novartis AG, priority 2002, dated 2009)
